Experimental data from US20230031406A1, “COMPOUNDS AND COMPOSITIONS FOR TREATING CONDITIONS ASSOCIATED WITH NLRP ACTIVITY” (Novartis AG, priority 2018, published 2023).

Each compound was assayed on PMA-differentiated THP-1 cells (assay: IL-1β production in PMA-differentiated THP-1 cells stimulated with gramicidin (hTHP-1 assay containing 2% fetal bovine serum; Procedures 1 and 2)). Conditions: Homo sapiens, THP-1, Table B2; 2% fetal bovine serum; class symbols; read-out: hTHP-1 IC50.
Assay type: cell-based, human
Procedure, shortened: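 PMA-primed (20 ng/ml, 16-18 h) THP-1 cells in RPMI with 2% FBS, 50,000 cells/well, were preincubated 1 h with compound (0.0017-100 μM final, 0.37% DMSO), then stimulated 2 h with 5 μM gramicidin. Supernatant IL-1β measured by HTRF.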
With `CC(C)n1cc(Cl)c(S(N)(=O)=NC(=O)Nc2c3c(nc4c2CCC4)CCC3)n1` (stereo not shown) [Compound 694, 4-Chloro-N′-((1,2,3,5,6,7-hexahydrodicyclopenta[b,e]pyridin-8-yl)carbamoyl)-1-isopropyl-1H-pyrazole-3-sulfonimidamide] the IC50 was 1000 to 5000 nM. `Cc1cc(C(C)(C)O)sc1S(N)(=O)=NC(=O)Nc1c2c(nc3c1CCC3)CCC2` (stereo not shown) [Compound 695, N-((1,2,3,5,6,7-hexahydrodicyclopenta[b,e]pyridin-8-yl)carbamoyl)-5-(2-hydroxypropan-2-yl)-3-methylthiophene-2-sulfonimidamide] gave an IC50 of 5000 to 30000 nM. For `CC(C)c1cc(C#N)nc(C(C)C)c1NC(=O)NS(=N)(=O)c1sc(C(C)(C)O)nc1CO` (stereo not shown) [Compound 696, N-((6-cyano-2,4-diisopropylpyridin-3-yl)carbamoyl)-4-(hydroxymethyl)-2-(2-hydroxypropan-2-yl)thiazole-5-sulfonimidamide], the IC50 was 5000 to 30000 nM. `CC(C)(O)c1ncc(S(N)(=O)=NC(=O)Nc2c3c(nc4c2CCC4CF)CCC3)s1` (stereo not shown) [Compound 702, N′-((3-(fluoromethyl)-1,2,3,5,6,7-hexahydrodicyclopenta[b,e]pyridin-8-yl)carbamoyl)-2-(2-hydroxypropan-2-yl)thiazole-5-sulfonimidamide] gave an IC50 of 1000 to 5000 nM. `CC(C)(O)c1ncc(S(N)(=O)=NC(=O)Nc2c3c(nc4c2CCC4C(=O)O)CCC3)s1` (stereo not shown) [Compound 703, 8-(3-(Amino(2-(2-hydroxypropan-2-yl)thiazol-5-yl)(oxo)-λ^6-sulfanylidene)ureido)-1,2,3,5,6,7-hexahydrodicyclopenta[b,e] pyridine-3-carboxylic acid] gave an IC50 of 5000 to 30000 nM. `CC(C)(O)c1cc(S(N)(=O)=NC(=O)Nc2c3c(nc4c2CCC4(C)C)CCC3)nn1-c1ccc(F)cc1` (stereo not shown) [Compound 704, N′-((3,3-dimethyl-1,2,3,5,6,7-hexahydrodicyclopenta[b,e]pyridin-8-yl)carbamoyl)-1-(4-fluorophenyl)-5-(2-hydroxypropan-2-yl)-1H-pyrazole-3-sulfonimidamide] showed an IC50 of 1000 to 5000 nM. `CC(C)c1nc(C(F)(F)F)nc(C(C)C)c1NC(=O)N=S(N)(=O)c1sc(C(C)(C)O)nc1CO` (stereo not shown) [Compound 713] gave an IC50 of 1000 to 5000 nM. Work on `C[C@](O)(CO)c1cc(F)c(S(N)(=O)=NC(=O)Nc2c3c(nc4c2CCC42CC2)CCC3)s1` (stereo partly shown) [Compound 716a] yielded an IC50 of 40 to 200 nM. `C[C@@](O)(CO)c1cc(F)c(S(N)(=O)=NC(=O)Nc2c3c(nc4c2CCC42CC2)CCC3)s1` (stereo partly shown) [Compound 716b] was tested, and the IC50 was 200 to 1000 nM. Work on `Cc1c(C(F)(F)F)nc2c(c1NC(=O)N=S(N)(=O)c1nn(C(F)F)cc1F)CCC2` (stereo not shown) [Compound 717] yielded an IC50 of 200 to 1000 nM. For `C[C@@H]1CCc2c1nc1c(c2NC(=O)N=S(N)(=O)c2nn(C(F)F)cc2F)CCC1` (stereo partly shown) [Compound 718a], the IC50 was 40 to 200 nM. `NS(=O)(=NC(=O)Nc1c2c(nc3c1CCC31CC1)CCC2)c1nn(C(F)F)cc1F` (stereo not shown) [Compound 719] showed an IC50 of 200 to 1000 nM. `CCc1cc(F)c(S(N)(=O)=NC(=O)Nc2c3c(nc4c2CC[C@H]4C)CCC3)s1` (stereo partly shown) [Compound 720c] showed an IC50 of 200 to 1000 nM. `CCc1csc(S(N)(=O)=NC(=O)Nc2c3c(nc4c2CC[C@H]4C)CCC3)c1` (stereo partly drawn) [Compound 721c, 4-Ethyl-N′-(((R)-3-methyl-1,2,3,5,6,7-hexahydrodicyclopenta [b,e]pyridin-8-yl)carbamoyl)thiophene-2-sulfonimidamide] was tested, and the IC50 was 40 to 200 nM. `Cc1c(C2(F)CC2)nc2c(c1NC(=O)N=S(N)(=O)c1cc(C(C)(C)O)cs1)CCC2` (stereo not shown) [Compound 722] showed an IC50 of 1000 to 5000 nM. `C[C@@H]1CCc2c1nc1c(c2NC(=O)N=S(N)(=O)c2ccn(C(C)(F)F)n2)CCC1` (stereo partly shown) [Compound 723c] was tested, and the IC50 was 200 to 1000 nM. `CC1(C)CCc2c1nc1c(c2NC(=O)N=S(N)(=O)c2cnc(C(C)(CO)CO)s2)CCC1` (stereo not shown) [Compound 724] gave an IC50 of 200 to 1000 nM. Compound `CCc1ccsc1S(N)(=O)=NC(=O)Nc1c2c(nc3c1CC[C@H]3C)CCC2` (stereo partly shown) [Compound 725a] has an IC50 of 1000 to 5000 nM. `CCn1ccc(S(N)(=O)=NC(=O)Nc2c3c(nc(C4CC4)c2C2CC2)CCC3)n1` (stereo not shown) [Compound 726] showed an IC50 of 1000 to 5000 nM. `CCn1ccc([S@](N)(=O)=NC(=O)Nc2c3c(nc(C4CC4)c2C2CC2)CCC3)n1` [Compound 726b] gave an IC50 of 200 to 1000 nM. With `CC(C)(O)c1cc(F)c(S(N)(=O)=NC(=O)Nc2c3c(nc(C4CC4)c2C2CC2)CCC3)s1` (stereo not shown) [Compound 727] the IC50 was 200 to 1000 nM. Compound `CC(C)(O)c1cc(F)c([S@@](N)(=O)=NC(=O)Nc2c3c(nc(C4CC4)c2C2CC2)CCC3)s1` [Compound 727a] has an IC50 of 1000 to 5000 nM. `CC(C)(O)c1cc(F)c([S@](N)(=O)=NC(=O)Nc2c3c(nc(C4CC4)c2C2CC2)CCC3)s1` [Compound 727b] was tested, and the IC50 was 40 to 200 nM. Work on `NS(=O)(=NC(=O)Nc1c2c(nc(C3CC3)c1C1CC1)CCC2)c1ccn(C(F)F)n1` (stereo not shown) [Compound 728] yielded an IC50 of 1000 to 5000 nM. With `N[S@](=O)(=NC(=O)Nc1c2c(nc(C3CC3)c1C1CC1)CCC2)c1ccn(C(F)F)n1` [Compound 728a] the IC50 was 5000 to 30000 nM. In the case of `N[S@@](=O)(=NC(=O)Nc1c2c(nc(C3CC3)c1C1CC1)CCC2)c1ccn(C(F)F)n1` [Compound 728b], the IC50 is reported as 200 to 1000 nM. For `CCn1cc(Cl)c(S(N)(=O)=NC(=O)Nc2c(C)c(C(F)(F)F)nc3c2CCC3)n1` (stereo not shown) [Compound 729], the IC50 was 200 to 1000 nM. Compound `Cc1c(C(F)(F)F)nc2c(c1NC(=O)N=S(N)(=O)c1ccn(C)n1)CCC2` (stereo not shown) [Compound 730] has an IC50 of 5000 to 30000 nM. `Cc1c(C(F)(F)F)nc2c(c1NC(=O)N=[S@@](N)(=O)c1ccn(C)n1)CCC2` [Compound 730b] showed an IC50 of 1000 to 5000 nM. `CCn1ccc(S(N)(=O)=NC(=O)Nc2c(C)c(C(F)(F)F)nc3c2CCC3)n1` (stereo not shown) [Compound 731] showed an IC50 of 1000 to 5000 nM. For `CCn1ccc([S@@](N)(=O)=NC(=O)Nc2c(C)c(C(F)(F)F)nc3c2CCC3)n1` [Compound 731a], the IC50 was 5000 to 30000 nM. `CCn1ccc([S@](N)(=O)=NC(=O)Nc2c(C)c(C(F)(F)F)nc3c2CCC3)n1` [Compound 731b] gave an IC50 of 200 to 1000 nM. With `Cc1c(C2(F)CC2)nc2c(c1NC(=O)N=S(N)(=O)c1sc(C(C)(C)O)cc1F)CCC2` (stereo not shown) [Compound 733] the IC50 was 1000 to 5000 nM. `CC1(C)CCc2c1nc1c(c2NC(=O)N=S(N)(=O)c2cnc(C(O)(CO)CO)s2)CCC1` (stereo not shown) [Compound 734, N′-((3,3-dimethyl-1,2,3,5,6,7-hexahydrodicyclopenta[b,e]pyridin-8-yl)carbamoyl)-2-(1,2,3-trihydroxypropan-2-yl)thiazole-5-sulfonimidamide] was tested, and the IC50 was 200 to 1000 nM. `CNS(=O)(=O)c1cccc(S(N)(=O)=NC(=O)Nc2c3c(nc4c2CCC4(C)C)CCC3)c1` (stereo not shown) [Compound 735, 3-(N′-((3,3-dimethyl-1,2,3,5,6,7-hexahydrodicyclopenta [b,e]pyridin-8-yl)carbamoyl)sulfamidimidoyl)-N-methylbenzenesulfonamide] showed an IC50 of 1000 to 5000 nM. `COCCOC[C@@](C)(O)c1ncc(S(N)(=O)=NC(=O)Nc2c3c(nc4c2CCC4(C)C)CCC3)s1` (stereo partly drawn) [Compound 736, N′-((3,3-dimethyl-1,2,3,5,6,7-hexahydrodicyclopenta [b,e]pyridin-8-yl)carbamoyl)-2-((R)-2-hydroxy-1-(2-methoxyethoxy)propan-2-yl)thiazole-5-sulfonimidamide] gave an IC50 of 1000 to 5000 nM. Compound `CC(C)(CO)c1ncc(S(N)(=O)=NC(=O)Nc2c3c(nc4c2CCC4(C)C)CCC3)s1` (stereo not shown) [Compound 737] has an IC50 of 200 to 1000 nM.

Same assay, conditions: Homo sapiens, THP-1, Table B2; 2% fetal bovine serum; numeric bounds; read-out: hTHP-1 IC50
`CCOC(=O)c1nc2c(c(NC(=O)N=S(N)(=O)c3cnc(C(C)(C)O)s3)c1C)CCC2` (stereo not shown) [Compound 706] gave an IC50 greater than 30000 nM. In the case of `Cc1c(C2(C)CC2)nc2c(c1NC(=O)N=S(N)(=O)c1cnc(C(C)(O)CO)s1)CCC2` (stereo not shown) [Compound 707], the IC50 is reported as greater than 30000 nM. In the case of `CC(C)(O)c1ncc(S(N)(=O)=NC(=O)Nc2cc(C(F)F)nc3c2CCC3)s1` (stereo not shown) [Compound 708], the IC50 is reported as greater than 30000 nM. With `CN(C)Cc1nc(C(C)(C)O)sc1[S@](N)(=O)=NC(=O)Nc1c2c(nc3c1CCC3(C)C)CCC2` [Compound 709] the IC50 was greater than 30000 nM. `CC(C)(O)c1cnc(S(N)(=O)=NC(=O)Nc2c3c(nc4c2CCC4O)CCC3)s1` (stereo not shown) [Compound 710] showed an IC50 greater than 30000 nM. Compound `CC(C)(O)c1ncc(S(N)(=O)=NC(=O)Nc2c3c(nc4c2CCC4=O)CCC3)s1` (stereo not shown) [Compound 711] has an IC50 greater than 30000 nM. Work on `Cc1c(C(=O)O)nc2c(c1NC(=O)N=S(N)(=O)c1cnc(C(C)(C)O)s1)CCC2` (stereo not shown) [Compound 712] yielded an IC50 greater than 30000 nM. `CCn1ccc([S@@](N)(=O)=NC(=O)Nc2c3c(nc(C4CC4)c2C2CC2)CCC3)n1` [Compound 726a] gave an IC50 greater than 30000 nM. Compound `Cc1nc2c(c(NC(=O)N=[S@@](N)(=O)c3cnc(C(C)(C)O)s3)c1C1CC1)CCC2` [Compound 738] has an IC50 greater than 30000 nM.

Same assay, conditions: Homo sapiens, THP-1, Table B3; hTHP-1 assay, 2% fetal bovine serum; class symbols; read-out: IC50
Compound `CCn1cc(F)c(S(N)(=O)=NC(=O)Nc2c3c(nc(C(F)(F)F)c2C2CC2)CCC3)n1` (stereo not shown) [Compound 983] has an IC50 of 40 to 200 nM. With `CC1(C)CCc2c1nc1c(c2NC(=O)N=[S@@](N)(=O)c2sc(C(O)(CO)CO)nc2CO)CCC1` [Compound 985a] the IC50 was 1000 to 5000 nM. Compound `CC1(C)CCc2c1nc1c(c2NC(=O)N=S(N)(=O)c2sc(C(O)(CO)CO)nc2CO)CCC1` (stereo not shown) [Compound 985b] has an IC50 of 200 to 1000 nM.

Same assay, conditions: Homo sapiens, THP-1, read-out: hTHP-1 IC50 in 2% FBS, hTHP-1 assay containing 2% fetal bovine serum; Table B5
For `CC(C)n1cc(F)c(S(N)(=O)=NC(=O)Nc2c3c(nc(C(F)(F)F)c2C2CC2)CCC3)n1` (stereo not shown) [Compound 1104, N′-((3-cyclopropyl-2-(trifluoromethyl)-6,7-dihydro-5H-cyclopenta[b]pyridin-4-yl)carbamoyl)-4-fluoro-1-isopropyl-1H-pyrazole-3-sulfonimidamide], the IC50 was 200 to 1000 nM.

Same assay, conditions: Table B3; hTHP-1 assay, 2% fetal bovine serum; class symbols; listed as Compound 984a; read-out: IC50
With `NS(=O)(=NC(=O)Nc1c2c(nc(C(F)(F)F)c1C1CC1)CCC2)c1nn(C(F)F)cc1F` (stereo not shown) [Compound 984a] the IC50 was 5000 to 30000 nM.

Same assay, conditions: Table B3; hTHP-1 assay, 2% fetal bovine serum; class symbols; listed as Compound 984b; read-out: IC50
In the case of `NS(=O)(=NC(=O)Nc1c2c(nc(C(F)(F)F)c1C1CC1)CCC2)c1nn(C(F)F)cc1F` (stereo not shown) [Compound 984b], the IC50 is reported as 40 to 200 nM.
